Laboratory results as given in patent publication US20250011368A1, “DLL3 TARGETING PEPTIDES AND CONSTRUCTS THEREOF” (MARIANA ONCOLOGY INC., priority 2023, published 2025).
Bridge positions count the residues as written; N and C are the ends. Square brackets hold non-standard residues; d marks the D form. Peptide text beside a SMILES is read from it. * marks the point of attachment. ξ: configuration not given here. X2 = O=C(O)CN1CCN(CC(=O)O)CCN(CC(=O)NCCOCCOCCOCCOCCOCCOCCOCCOCC(=O)*)CCN(CC(=O)O)CC1; X4 = O=C(O)CN1CCN(CC(=O)O)CCN(CC(=O)N[C@H]2CC[C@H](CC(=O)*)CC2)CCN(CC(=O)O)CC1; DOTA = O=C(O)CN1CCN(CC(=O)O)CCN(CC(=O)*)CCN(CC(=O)O)CC1; Trp(5-OMe) = COc1ccc2[nH]cc(C[C@H](N)C(=O)O)c2c1; Trp(7-aza) = N[C@@H](Cc1c[nH]c2ncccc12)C(=O)O; 1Nal = N[C@@H](Cc1cccc2ccccc12)C(=O)O; 2Nal = N[C@@H](Cc1ccc2ccccc2c1)C(=O)O; ξW = NC(Cc1c[nH]c2ccccc12)C(=O)O; Octanoyl = CCCCCCCC(=O)*; Dab = NCC[C@H](N)C(=O)O; Hexanoyl = CCCCCC(=O)*; ξC = NC(CS)C(=O)O

The molecules below were run against T1, human DLL3 (Homo sapiens, UniProt Q9NYJ7) (assay: Affinity determination by Surface Plasmon Resonance (SPR)). Conditions: 25° C., biotinylated human DLL3 immobilized on streptavidin sensor chip, 1:1 binding model; read-out: SPR KD.
T1 sequence (Q9NYJ7 27-618): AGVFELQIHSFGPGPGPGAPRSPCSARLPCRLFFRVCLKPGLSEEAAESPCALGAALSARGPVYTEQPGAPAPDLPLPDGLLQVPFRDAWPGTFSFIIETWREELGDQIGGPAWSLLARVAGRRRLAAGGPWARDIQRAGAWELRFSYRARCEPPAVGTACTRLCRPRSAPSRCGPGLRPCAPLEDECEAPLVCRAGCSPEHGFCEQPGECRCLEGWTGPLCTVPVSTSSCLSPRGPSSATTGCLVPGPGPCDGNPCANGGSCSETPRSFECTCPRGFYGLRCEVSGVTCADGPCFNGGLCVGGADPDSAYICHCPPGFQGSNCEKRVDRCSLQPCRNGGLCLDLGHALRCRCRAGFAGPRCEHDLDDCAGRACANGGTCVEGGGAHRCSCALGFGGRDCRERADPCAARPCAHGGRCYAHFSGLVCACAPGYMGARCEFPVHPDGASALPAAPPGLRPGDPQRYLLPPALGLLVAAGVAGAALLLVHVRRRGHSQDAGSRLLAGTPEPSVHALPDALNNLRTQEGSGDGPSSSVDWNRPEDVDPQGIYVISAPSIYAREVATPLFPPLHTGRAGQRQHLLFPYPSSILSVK
Assay type: binding
Description: SPR studies were performed on the compounds disclosed herein using the following protocol.
Biotinylated target ligand human DLL3 was immobilized on a streptavidin sensor chip. A reference surface was set up for nonspecific binding and refractive index changes. For analysis of the kinetics of interactions, varying concentrations of samples were injected at a flow rate of 100 μL/minute using running buffer containing 20 mM phosphate buffer with 2.7 mM KCl, 137 mM NaCl, 0.05% Surfactant P20 and 2% DMSO. Sensorgram curves were fitted with 1:1 binding model, and affinity and kinetic parameters were obtained using Biacore Insight evaluation 4.0. software.

Kd, 10 to 100 nM:
CC[C@H](C)[C@H](NC(=O)[C@@H](NC(=O)[C@H](Cc1c[nH]c2ccccc12)NC(C)=O)[C@@H](C)O)C(=O)N[C@H]1CSSC[C@@H](C(=O)N[C@@H](Cc2ccc3ccccc3c2)C(=O)N2CCC[C@H]2C(=O)N[C@H](CCCCNC(=O)CN2CCN(CC(=O)O)CCN(CC(=O)O)CCN(CC(=O)O)CC2)C(N)=O)NC(=O)[C@H](CC(=O)O)NC(=O)[C@H](Cc2cnc[nH]2)NC(=O)[C@H](Cc2c[nH]c3ccccc23)NC(=O)[C@H](CC(N)=O)NC(=O)[C@H](CC(N)=O)NC1=O [compound 77, Ac-W-T-I-C(3)-N-N-W-H-D-C(3)-(2Nal)-P-[D-Lys(DOTA)]-NH2] (Ac-WTICNNWHDC[2Nal]P[dK](DOTA)-NH2; disulfide 4-10)
CC[C@H](C)[C@H](NC(=O)[C@@H](NC(=O)[C@H](Cc1c[nH]c2ccccc12)NC(C)=O)[C@@H](C)O)C(=O)N[C@H]1CSSC[C@@H](C(=O)N[C@@H](Cc2c[nH]c3ccccc23)C(=O)N2CCC[C@H]2C(=O)N[C@H](CCCCNC(=O)CN2CCN(CC(=O)O)CCN(CC(=O)O)CCN(CC(=O)O)CC2)C(N)=O)NC(=O)[C@H](CC(=O)O)NC(=O)[C@H](Cc2cnc[nH]2)NC(=O)[C@H](Cc2c[nH]c3ccc(OC)cc23)NC(=O)[C@H](CC(N)=O)NC(=O)[C@H](CC(N)=O)NC1=O [compound 86, Ac-W-T-I-C(3)-N-N-(5Ome-W)-H-D-C(3)-W-P-[D-Lys(DOTA)]-NH2] (Ac-WTICNN[Trp(5-OMe)]HDCWP[dK](DOTA)-NH2; disulfide 4-10)
CC[C@H](C)[C@H](NC(=O)[C@@H](NC(=O)[C@H](Cc1c[nH]c2ccccc12)NC(C)=O)[C@@H](C)O)C(=O)N[C@H]1CSSC[C@@H](C(=O)N[C@@H](Cc2c[nH]c3ncccc23)C(=O)N2CCC[C@H]2C(=O)N[C@H](CCCCNC(=O)CN2CCN(CC(=O)O)CCN(CC(=O)O)CCN(CC(=O)O)CC2)C(N)=O)NC(=O)[C@H](CC(=O)O)NC(=O)[C@H](Cc2cnc[nH]2)NC(=O)[C@H](Cc2c[nH]c3ccccc23)NC(=O)[C@H](CC(N)=O)NC(=O)[C@H](CC(N)=O)NC1=O [compound 87, Ac-W-T-I-C(3)-N-N-W-H-D-C(3)-(7Aza-W)-P-[D-Lys(DOTA)]-NH2] (Ac-WTICNNWHDC[Trp(7-aza)]P[dK](DOTA)-NH2; disulfide 4-10)
CCCCCC(=O)NCC[C@@H]1NC(=O)[C@@H](NC(=O)[C@@H](NC(=O)[C@@H](NC(=O)[C@H](Cc2c[nH]c3ccccc23)NC(C)=O)[C@@H](C)O)[C@@H](C)CC)CSSC[C@@H](C(=O)N[C@@H](Cc2c[nH]c3ccccc23)C(=O)N2CCC[C@H]2C(=O)N[C@H](CCCCNC(=O)CN2CCN(CC(=O)O)CCN(CC(=O)O)CCN(CC(=O)O)CC2)C(N)=O)NC(=O)[C@H](CC(=O)O)NC(=O)[C@H](Cc2cnc[nH]2)NC(=O)[C@H](Cc2c[nH]c3ccccc23)NC(=O)[C@H](CC(N)=O)NC1=O [compound 90, Ac-W-T-I-C(3)-(DAB-4-NHCOC5H11)-N-W-H-D-C(3)-W-P-[D-Lys(DOTA)]-NH2] (Ac-WTIC[Dab](Hexanoyl)NWHDCWP[dK](DOTA)-NH2; disulfide 4-10)
CCCCCCCC(=O)NCC[C@@H]1NC(=O)[C@@H](NC(=O)[C@@H](NC(=O)[C@@H](NC(=O)[C@H](Cc2c[nH]c3ccccc23)NC(C)=O)[C@@H](C)O)[C@@H](C)CC)CSSC[C@@H](C(=O)N[C@@H](Cc2c[nH]c3ccccc23)C(=O)N2CCC[C@H]2C(=O)N[C@H](CCCCNC(=O)CN2CCN(CC(=O)O)CCN(CC(=O)O)CCN(CC(=O)O)CC2)C(N)=O)NC(=O)[C@H](CC(=O)O)NC(=O)[C@H](Cc2cnc[nH]2)NC(=O)[C@H](Cc2c[nH]c3ccccc23)NC(=O)[C@H](CC(N)=O)NC1=O [compound 91, Ac-W-T-I-C(3)-(DAB-4-NHCOC7H15)-N-W-H-D-C(3)-W-P-[D-Lys(DOTA)]-NH2] (Ac-WTIC[Dab](Octanoyl)NWHDCWP[dK](DOTA)-NH2; disulfide 4-10)
CCCCCC(=O)NCC[C@@H]1NC(=O)[C@H](Cc2c[nH]c3ccccc23)NC(=O)[C@H](CC(N)=O)NC(=O)[C@H](CC(N)=O)NC(=O)[C@@H](NC(=O)[C@@H](NC(=O)[C@@H](NC(=O)[C@H](Cc2c[nH]c3ccccc23)NC(C)=O)[C@@H](C)O)[C@@H](C)CC)CSSC[C@@H](C(=O)N[C@@H](Cc2c[nH]c3ccccc23)C(=O)N2CCC[C@H]2C(=O)N[C@H](CCCCNC(=O)CN2CCN(CC(=O)O)CCN(CC(=O)O)CCN(CC(=O)O)CC2)C(N)=O)NC(=O)[C@H](CC(=O)O)NC1=O [compound 92, Ac-W-T-I-C(3)-N-N-W-(DAB-4-NHCOC5H11)-D-C(3)-W-P-[D-Lys(DOTA)]-NH2] (Ac-WTICNNW[Dab](Hexanoyl)DCWP[dK](DOTA)-NH2; disulfide 4-10)

Kd, 1 to 10 nM:
CC[C@H](C)[C@H](NC(=O)[C@@H](NC(=O)[C@H](Cc1c[nH]c2ccccc12)NC(C)=O)[C@@H](C)O)C(=O)N[C@H]1CSSC[C@@H](C(=O)N[C@@H](Cc2c[nH]c3ccccc23)C(=O)N2CCC[C@H]2C(=O)N[C@H](CCCCNC(=O)C[C@H]2CC[C@H](NC(=O)CN3CCN(CC(=O)O)CCN(CC(=O)O)CCN(CC(=O)O)CC3)CC2)C(N)=O)NC(=O)[C@H](CC(=O)O)NC(=O)[C@H](Cc2cnc[nH]2)NC(=O)[C@H](Cc2c[nH]c3ccccc23)NC(=O)[C@H](CC(N)=O)NC(=O)[C@H](CC(N)=O)NC1=O [compound 48, Ac-W-T-I-C(3)-N-N-W-H-D-C(3)-W-P-(D-Lys)-CyHex-DOTA-NH2] (Ac-WTICNNWHDCWP[dK](X4)-NH2; disulfide 4-10)
CC[C@H](C)[C@H](NC(=O)[C@@H](NC(=O)[C@H](Cc1c[nH]c2ccccc12)NC(C)=O)[C@@H](C)O)C(=O)N[C@H]1CSSC[C@@H](C(=O)N[C@@H](Cc2c[nH]c3ccccc23)C(=O)N2CCC[C@H]2C(=O)N[C@H](CCCCNC(=O)CN2CCN(CC(=O)O)CCN(CC(=O)O)CCN(CC(=O)O)CC2)C(N)=O)NC(=O)[C@H](CC(=O)O)NC(=O)[C@H](Cc2cnc[nH]2)NC(=O)[C@H](Cc2cccc3ccccc23)NC(=O)[C@H](CC(N)=O)NC(=O)[C@H](CC(N)=O)NC1=O [compound 74, Ac-W-T-I-C(3)-N-N-(1Nal)-H-D-C(3)-W-P-[D-Lys(DOTA)]-NH2] (Ac-WTICNN[1Nal]HDCWP[dK](DOTA)-NH2; disulfide 4-10)
CC[C@H](C)[C@H](NC(=O)[C@@H](NC(=O)[C@H](Cc1c[nH]c2ccccc12)NC(C)=O)[C@@H](C)O)C(=O)N[C@H]1CSSC[C@@H](C(=O)N[C@@H](Cc2cccc3ccccc23)C(=O)N2CCC[C@H]2C(=O)N[C@H](CCCCNC(=O)CN2CCN(CC(=O)O)CCN(CC(=O)O)CCN(CC(=O)O)CC2)C(N)=O)NC(=O)[C@H](CC(=O)O)NC(=O)[C@H](Cc2cnc[nH]2)NC(=O)[C@H](Cc2c[nH]c3ccccc23)NC(=O)[C@H](CC(N)=O)NC(=O)[C@H](CC(N)=O)NC1=O [compound 76, Ac-W-T-I-C(3)-N-N-W-H-D-C(3)-(1Nal)-P-[D-Lys(DOTA)]-NH2] (Ac-WTICNNWHDC[1Nal]P[dK](DOTA)-NH2; disulfide 4-10)
CC[C@H](C)[C@H](NC(=O)[C@@H](NC(=O)[C@H](Cc1c[nH]c2ccccc12)NC(C)=O)[C@@H](C)O)C(=O)N[C@H]1CSSCC(C(=O)N[C@@H](Cc2c[nH]c3ccccc23)C(=O)N2CCC[C@H]2C(=O)N[C@H](CCCCNC(=O)CN2CCN(CC(=O)O)CCN(CC(=O)O)CCN(CC(=O)O)CC2)C(N)=O)NC(=O)[C@H](CC(=O)O)NC(=O)[C@H](Cc2cnc[nH]2)NC(=O)[C@H](Cc2c[nH]c3ncccc23)NC(=O)[C@H](CC(N)=O)NC(=O)[C@H](CC(N)=O)NC1=O (stereo partly drawn) [compound 85, Ac-W-T-I-C(3)-N-N-(7Aza-W)-H-D-C(3)-W-P-[D-Lys(DOTA)]-NH2] (Ac-WTICNN[Trp(7-aza)]HD[ξC]WP[dK](DOTA)-NH2; disulfide 4-10)
CC[C@H](C)[C@H](NC(=O)[C@@H](NC(=O)[C@H](Cc1c[nH]c2ccccc12)NC(C)=O)[C@@H](C)O)C(=O)N[C@H]1CSSC[C@@H](C(=O)NC(Cc2c[nH]c3ccccc23)C(=O)N2CCC[C@H]2C(=O)N[C@H](CCCCNC(=O)COCCOCCOCCOCCOCCOCCOCCOCCNC(=O)CN2CCN(CC(=O)O)CCN(CC(=O)O)CCN(CC(=O)O)CC2)C(N)=O)NC(=O)[C@H](CC(=O)O)NC(=O)[C@H](Cc2cnc[nH]2)NC(=O)[C@H](Cc2c[nH]c3ccccc23)NC(=O)[C@H](CC(N)=O)NC(=O)[C@H](CC(N)=O)NC1=O (stereo partly drawn) [compound 89, Ac-W-T-I-C(3)-N-N-W-H-D-C(3)-W-P-(D-Lys)-PEG8-DOTA-NH2] (Ac-WTICNNWHDC[ξW]P[dK](X2)-NH2; disulfide 4-10)

Kd, 100 to 300 nM:
CC[C@H](C)[C@H](NC(=O)[C@@H](NC(=O)[C@H](Cc1c[nH]c2ccccc12)NC(C)=O)[C@@H](C)O)C(=O)N[C@H]1CSSC[C@@H](C(=O)N[C@@H](Cc2c[nH]c3ccc(OC)cc23)C(=O)N2CCC[C@H]2C(=O)N[C@H](CCCCNC(=O)CN2CCN(CC(=O)O)CCN(CC(=O)O)CCN(CC(=O)O)CC2)C(N)=O)NC(=O)[C@H](CC(=O)O)NC(=O)[C@H](Cc2cnc[nH]2)NC(=O)[C@H](Cc2c[nH]c3ccccc23)NC(=O)[C@H](CC(N)=O)NC(=O)[C@H](CC(N)=O)NC1=O [compound 88, Ac-W-T-I-C(3)-N-N-W-H-D-C(3)-(5Ome-W)-P-[D-Lys(DOTA)]-NH2] (Ac-WTICNNWHDC[Trp(5-OMe)]P[dK](DOTA)-NH2; disulfide 4-10)
